# Where a name gives a salt, the structure may show the parent alone.
# Legend:
# [1] = system: oedema of the leg induced by Zymosan; test: Oedema of the leg induced by Zymosan in mice; type: in vivo; conditions: oral route, 30 mg/kg, one hour before zymosan, sacrificed after 4 hours
# Procedure: a) Oedema of the leg induced by Zymosan in mice Zymosan is a polysaccharide of the yeast cell membrane. Injected into the leg of animals, it causes a local inflammatory reaction in the form of an oedema. One hour after administration of the inhibitor tested by the oral route to mice, at the dose of 30 mg/kg, 25 μl of zymosan (0.05% in 0.15 M NaCl) are injected into the left hind leg and 25 μl of physiological saline into the right leg as control. The animal is sacrificed after 4 hours, the legs cut at the ankle and weighed in order to evaluate the oedema developed.
# [2] = system: biosynthesis of LTB4 in the air pouch; test: Inflammation induced by carrageenan in the air pouch model in mice (LTB4 in exudate); type: in vivo
# Procedure: b) Inflammation induced by carrageenan in the air pouch model in mice
# The air pouches are formed in mice according to Dawson et al. (Int. J. Tiss. React., 1991, XIII: 171). On day D, 5 ml of air are injected by the subcutaneous route into the back of the mice. On D+3, the pouch is maintained by reinjecting 3 ml of air. On D+6, either a cyclooxygenase inhibitor (indomethacin 5 mg/kg), or an LTA4 hydrolase inhibitor according to the invention (25 mg/kg), or the two in combination are administered by the oral route. After 1 h, 1 ml of 1% carrageenan is injected into the air pouch. The animals are sacrificed 4 h after the injection of carrageenan. The air pouche is washed with 1 ml of 50 mM potassium phosphate buffer containing 0.15 M NaCl, pH 7.4. The exudate is recovered and centrifuged at 10,000 g for 5 minutes. LTB4 is assayed in the supernatant by enzyme-linked immunoassay.
# [3] = biological target: T1, human recombinant LTA4 hydrolase (Homo sapiens, UniProt P09960); test: Inhibition of the aminopeptidase activity of recombinant LTA4 hydrolase (fluorimetric, Ala-AMC); type: biochemical; conditions: human recombinant enzyme, Ala-AMC 25 μM, DTT 10^−5 M, pH 7.4, 37° C.
# T1 construct: made in house; host or cells: E. coli JM109
# T1 sequence (P09960 1-611): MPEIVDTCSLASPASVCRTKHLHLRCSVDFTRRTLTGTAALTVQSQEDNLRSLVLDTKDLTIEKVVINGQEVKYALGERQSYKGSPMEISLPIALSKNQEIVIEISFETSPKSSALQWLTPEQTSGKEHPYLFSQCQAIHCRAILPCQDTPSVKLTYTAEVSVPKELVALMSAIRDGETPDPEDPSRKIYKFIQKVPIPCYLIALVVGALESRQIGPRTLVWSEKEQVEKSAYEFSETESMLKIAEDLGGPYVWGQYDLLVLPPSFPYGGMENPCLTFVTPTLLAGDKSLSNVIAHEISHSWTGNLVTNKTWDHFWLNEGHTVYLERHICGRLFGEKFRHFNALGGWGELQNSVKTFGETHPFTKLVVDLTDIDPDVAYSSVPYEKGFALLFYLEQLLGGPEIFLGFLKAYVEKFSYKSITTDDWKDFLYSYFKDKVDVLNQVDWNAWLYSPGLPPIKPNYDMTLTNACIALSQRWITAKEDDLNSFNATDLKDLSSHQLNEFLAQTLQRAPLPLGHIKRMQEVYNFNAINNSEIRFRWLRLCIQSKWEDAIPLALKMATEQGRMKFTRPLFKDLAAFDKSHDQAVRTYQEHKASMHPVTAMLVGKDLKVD
# Procedure: 1) Inhibition of the aminopeptidase activity of recombinant LTA4 hydrolase
# The compounds were tested using human recombinant LTA4 hydrolase (Minami et al., FEBS Letters, 1988, 229: 279). The LTA4 hydrolase expressed by E. coli JM109 is purified mainly according to Minami et al., (J. Biol. Chem., 1987, 262: 13873).
# (§1) The inhibition of the aminopeptidase activity of the enzyme is measured by means of a fluorimetric method in 96-well microplates. The recombinant enzyme (0.5 μg in 50 μl of 50 mM Tris-HCl pH 7.4) is preincubated for 10 minutes at 37° C. in the presence of inhibitor and of dithiothreitol (DTT, 10^−5 M). The substrate alanyl-amido-methylcoumarin (Ala-AMC, 25 μM−Tris HCl 50 mM, pH 7.4) is added and the incubation is continued for 15 minutes at 37° C. The release of AMC is measured by fluorimetry.
# [4] = biological target: T2, LTA4 hydrolase activity in human whole blood (Homo sapiens, UniProt P09960); test: Inhibition of the biosynthesis of LTB4 in vitro in human whole blood; type: cell-based; conditions: LTA4 substrate, LTB4 by enzyme-linked immunoassay
# T2 construct: from tissue; host or cells: human whole blood collected over sodium heparinate
# T2 sequence (P09960 1-611): T1 sequence (P09960 1-611)
# Procedure: 2) Inhibition of the biosynthesis of LTB4 in vitro
# The biosynthesis of LTB4 is measured in human whole blood in the presence of inhibitors of LTA4 hydrolase according to the invention. A 50 μl blood sample collected over sodium heparinate is preincubated for 10 minutes at 37° C. in the presence of inhibitor (50 mM Tris-HCl, 0.15 M NaCl, 10^−5 M DTT, pH 7.4).
# The LTA4 substrate was freshly prepared by alkaline hydrolysis of LTA4 methyl ester (Cayman Chemical Co., USA). After incubating for 10 minutes in the presence of LTA4 (1 μm in 50 mM Tris-HCl, 0.15 M NaCl, 0.5% BSA, pH 7.4), the reaction is stopped by diluting 1/20 in 0.1 M potassium phosphate buffer containing 1.5 mM […], 0.4 M NaCl, 1 mM EDTA, 0.1% BSA, pH 7.4−4° C.
# The LTB4 is assayed by enzyme-linked immunoassay (Cayman Chemical Co, USA).
# [5] = biological target: T3, aminopeptidase M (EC 3.4.11.2) (Sus scrofa, UniProt P15145); test: Inhibition of membrane aminopeptidase M (same fluorimetric test); type: biochemical; conditions: 0.1 μg aminopeptidase M (Pierce)
# T3 construct: purchased Pierce, USA
# T3 sequence (P15145 1-963): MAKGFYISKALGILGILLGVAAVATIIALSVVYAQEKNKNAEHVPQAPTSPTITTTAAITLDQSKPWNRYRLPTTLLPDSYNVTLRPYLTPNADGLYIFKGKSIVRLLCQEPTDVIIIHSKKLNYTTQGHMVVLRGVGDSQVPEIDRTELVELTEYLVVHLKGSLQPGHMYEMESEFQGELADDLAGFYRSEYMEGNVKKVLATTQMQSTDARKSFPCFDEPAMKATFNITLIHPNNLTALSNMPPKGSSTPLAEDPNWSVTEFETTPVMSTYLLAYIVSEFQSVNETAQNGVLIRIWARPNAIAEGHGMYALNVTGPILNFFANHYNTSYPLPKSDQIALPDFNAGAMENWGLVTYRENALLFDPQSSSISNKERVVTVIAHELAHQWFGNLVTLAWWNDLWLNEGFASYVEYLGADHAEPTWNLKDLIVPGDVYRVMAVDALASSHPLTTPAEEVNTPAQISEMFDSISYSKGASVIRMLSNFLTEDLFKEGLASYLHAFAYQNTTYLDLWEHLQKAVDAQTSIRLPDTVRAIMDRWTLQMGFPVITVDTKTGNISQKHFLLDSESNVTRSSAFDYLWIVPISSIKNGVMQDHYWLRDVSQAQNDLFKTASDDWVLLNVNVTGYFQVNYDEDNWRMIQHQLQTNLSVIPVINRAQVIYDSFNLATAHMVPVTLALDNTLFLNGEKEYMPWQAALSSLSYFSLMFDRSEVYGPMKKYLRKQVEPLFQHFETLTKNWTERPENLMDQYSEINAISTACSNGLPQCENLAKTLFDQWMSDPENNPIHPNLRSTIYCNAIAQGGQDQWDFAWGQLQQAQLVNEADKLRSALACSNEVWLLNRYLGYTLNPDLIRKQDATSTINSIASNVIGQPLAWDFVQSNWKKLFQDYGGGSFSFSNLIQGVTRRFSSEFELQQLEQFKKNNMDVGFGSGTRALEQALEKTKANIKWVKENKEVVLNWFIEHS
# Procedure: as §1
# To evaluate the specificity of the compounds according to the invention, some of them were also tested for their capacity to inhibit the activity of membrane aminopeptidase M (EC 3.4.11.2). The same test is carried out with 0.1 μg of aminopeptidase M (Pierce, USA).
# biosynthesis of LTB4 = test: Inhibition of the biosynthesis of LTB4 ex vivo (mouse blood after oral dosing); type: in vivo; conditions: mice, blood collected thirty minutes later
# Procedure: 3) Inhibition of the biosynthesis of LTB4 ex vivo
# The compounds inhibiting LTA4 hydrolase according to the invention are suspended in 1.25% methyl cellulose and administered to mice by the oral route at the dose of 10 mg/kg. Thirty minutes later, the mice are sacrificed and the blood collected over lithium heparinate. The blood is then, as above, incubated for 10 minutes at 37° C. in the presence of LTA4 and then the LTB4 formed is assayed by enzyme-linked immunoassay.
# [6] = system: collagen-induced arthritis; test: Collagen-induced arthritis in the rat (arthritis score); type: in vivo, rat "Dark Aganti"; conditions: score at 23rd day
# Procedure: c) Antiarthritic effect Collagen-induced arthritis was induced in the rat “Dark […]” according to the protocol by Kamada et al. (Jpn J. Pharmacol., 1997, 74: 313). The LTA4 hydrolase inhibitors are administered either “preventively” (starting from one day after the collagen), or curatively (during the first pathological manifestations, that is starting from 15 days after the collagen). […] The effect is-compared with that of indomethacin (1.5 mg/kg, p.o.).
structure (smiles),measurement,setting,value
"Cl.N[C@@H](CS)CCCCOc1ccccc1 (racemic) [Example 156, (R,S) -2-amino-6-phenoxy-1-hexanethiol hydrochloride]",Inhibition (%) of oedema of the leg induced by Zymosan,[1],35%
same,% LTB4 relative to the noninflamed control,"[2]; carrageenan + LTA4 hydrolase inhibitor 25 mg/kg oral, 4 h after carrageenan",−24%
same,% LTB4 relative to the noninflamed control,"[2]; carrageenan + indomethacin 5 mg/kg + inhibitor 25 mg/kg in combination, oral",−28%
"NC(CS)CCOc1ccccc1 (racemic) [Example 172, (R,S)-2-amino-4-phenoxy-1-butanethiol hydrochloride]",Ki,[3],0.015 µM
same,Ki,[4],0.19 µM
"NC(CS)CCCCc1ccccc1 (racemic) [Example 173, (R,S)-2-amino-6-phenyl-1-hexanethiol hydrochloride]",Ki,[3],0.033 µM
same,Ki,[5],0.2 µM
same,Ki,[4],0.2 µM
"Cl.N[C@@H](CS)CCCOc1ccccc1 (racemic) [Example 177, (R,S)-2-amino-5-phenoxy-1-pentanethiol hydrochloride]",Inhibition (%) of the biosynthesis of LTB4 ex vivo,biosynthesis of LTB4; 10 mg/kg,68%
"N[C@@H](CS)CSCc1ccccc1 [Example 23, (S)-2-amino-3-benzylthio-1-propanethiol hydrochloride]",Ki,[3],0.062 µM
"N[C@H](CS)COCc1ccccc1 [Example 24, (S)-2-amino-3-benzyloxy-1-propanethiol hydrochloride]",inhibition at 10 mg/kg,biosynthesis of LTB4; Mus musculus,28%
"Cl.Cl.NC(CCCCOc1ccccc1)CSSCC(N)CCCCOc1ccccc1 [Example 229, 1,1-dithiobis(2-(R,S)-amino-6-phenoxyhexane) dihydrochloride]",Arthritis score,"[6]; curative (starting 15 days after collagen), 10 mg/kg i.p. twice/day",0.38 ± 0.19
same,Arthritis score,"[6]; preventive (starting one day after collagen), 10 mg/kg i.p. twice/day",0
"COc1ccc2c(c1)c(CC(=O)O)c(C)n2C(=O)c1ccc(Cl)cc1 [indomethacin, reference compound]",% LTB4 relative to the noninflamed control,"[2]; carrageenan + indomethacin 5 mg/kg oral, 4 h after carrageenan",+516%
same,Arthritis score,"[6]; curative, 1.5 mg/kg p.o.",1.35 ± 0.61

# Source: patent US6436973B1, “LTA4 hydrolase inhibitors” (Bioprojet, priority 1998, dated 2002)
